Assay results reported in patent US9006185B2, “Use of cell-permeable peptide inhibitors of the JNK signal transduction pathway for the treatment of various diseases” (Xigen Inflammation Ltd., priority 2008, dated 2015).

Experiments:
hAPP Tg mice = test: Morris Water Maze in hAPP transgenic mice; type: in vivo
Description: i) Introduction • The study was designed to evaluate the efficacy of the test substance (XG-102, SEQ ID NO: 11) on behavioral, biochemical and histological markers using 5 months (±2 weeks) old female hAPP Tg mice. Therefore, mice were treated every two or three weeks up to 4 months and in the end of the treatment period behavior was evaluated in the Morris Water Maze. At sacrifice brain, CSF and blood were collected. Aβ40 and Aβ42 levels were determined in four different brain homogenate fractions as well as in CSF of Tg mice. Plaque load was quantified in the cortex and the hippocampus of 8 Tg animals per treatment group.
ii) Animals • Female Tg mice with a C57BL/6×DBA background and an age of 5 months (±2 week) were randomly assigned to treatment groups 1 to 3 (n=12). […]
v) Morris Water Maze (MWM) • The Morris Water Maze (MWM) task was conducted in a black circular pool of a diameter of 100 cm. […] For the quantification of escape latency (the time [second]—the mouse needed to find the hidden platform and therefore to escape from the water), of pathway (the length of the trajectory [meter] to reach the target) and of the abidance in the goal quadrant a computerized tracking system was used. […] The camera detected the signal of the light emitting diode (LED), which was fixed with a little hairgrip on the mouse's tail. […]

[1] = test system: Primary cultured macrophages; type: cell-based
Description: FIG. 24 Primary cultured macrophages were incubated with XG-102 (SEQ ID NO: 11) and extensively washed.

CC(C)C[C@@H](NC(=O)[C@@H](Cc1ccccc1)NC(=O)[C@H]1CCCN1C(=O)[C@@H](CCC(N)=O)NC(=O)[C@H](NC(=O)[C@H]1CCCN1C(=O)[C@@H](CCCNC(=N)N)NC(=O)[C@@H](CO)NC(=O)[C@@H](CCC(N)=O)NC(=O)[C@H](N)CC(=O)O)C(C)C)C(=O)N[C@H](CC(N)=O)C(=O)N[C@H](CC(C)C)C(=O)N[C@@H](C(=O)N[C@@H](C(=O)N1CCC[C@@H]1C(=O)N[C@H](CCCNC(=N)N)C(=O)N[C@H](CCCCN)C(=O)N1CCC[C@@H]1C(=O)N[C@H](CCCNC(=N)N)C(=O)N1CCC[C@@H]1C(=O)N1CCC[C@@H]1C(=O)N[C@H](CCCNC(=N)N)C(=O)N[C@H](CCCNC(=N)N)C(=O)N[C@H](CCCNC(=N)N)C(=O)N[C@H](CCC(N)=O)C(=O)N[C@H](CCCNC(=N)N)C(=O)N[C@H](CCCNC(=N)N)C(=O)N[C@H](CCCCN)C(=O)N[C@H](CCCCN)C(=O)N[C@H](CCCNC(=N)N)C(=O)NCC(=O)O)[C@H](C)O)[C@H](C)O [XG-102]
learning performance in the MWM (hAPP Tg mice; 0.1 mg/kg): a tendency to have worse learning performance between day 1 and day 4 | spatial learning in the MWM (hAPP Tg mice; 0.1 mg/kg every two weeks or 10 mg/kg every three weeks s.c., four months): remained widely uninfluenced | incorporation into primary macrophages [1]: strongly incorporated into primary macrophages
